Experimental data: ChEMBL document CHEMBL1201862, “PubChem BioAssay data set” (2004)
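Growth conditions: 96-well plates. Treatment: test compound, 48 hours, 5 concentrations. Analysis: linear interpolation between bracketing concentrations; unreached endpoints set to highest concentration. GI50 is the concentration that inhibits growth by half.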 Calls of active or inactive are those of the source. Rule as the data show it: active = GI50 up to about 1.1 µM and inactive = higher.

Key:
Experiment in all cases: inhibition of tumour cell growth, NCI panel, 48 h
[1] = tested on: LOX IMVI
[2] = tested on: COLO 205
[3] = tested on: U-251
[4] = tested on: ACHN
[5] = tested on: UACC-62
[6] = tested on: SK-MEL-2
[7] = tested on: SF-539
[8] = tested on: SK-MEL-5
[9] = tested on: Malme-3M
[10] = tested on: A549
[11] = tested on: HCT-116
[12] = tested on: KM12
[13] = tested on: OVCAR-4
[14] = tested on: SF-295
[15] = tested on: HOP-62
[16] = tested on: HL-60
[17] = tested on: K562
[18] = tested on: CCRF-CEM
[19] = tested on: MOLT-4

Measured: GI50

CCCCCCCCCCCCCCC(C)CCC(=O)O (stereo not given)
inactive: [1] 31.6 µM | [2] 44 µM | [3] 52.5 µM | [4] > 100 µM | [5] 78.9 µM | [6] 60 µM | [7] 48.9 µM | [8] > 100 µM | [9] > 100 µM | [10] > 100 µM | [11] 36.8 µM | [12] 49.8 µM | [13] > 100 µM | [14] > 100 µM | [15] > 100 µM

CC1=C(O)/C(=C/C(C)CCC/C(C)=C/C=C/C(C)CCCc2ccoc2)OC1=O (stereo not given)
inactive: [1] 34.2 µM | [2] 35.3 µM | [3] 37.8 µM | [4] 19.2 µM | [6] 25.5 µM | [7] 30.3 µM | [9] 10.1 µM | [10] 27.2 µM | [11] > 10 µM | [12] 34.4 µM | [16] 24.7 µM | [13] 29.4 µM | [14] 31.9 µM | [15] 18.5 µM

O=C(c1ccccc1)c1cn(/N=C\c2ccccc2)c(=O)nc1-c1ccccc1
inactive: [1] > 100 µM | [2] > 100 µM | [3] > 100 µM | [4] > 100 µM | [5] > 100 µM | [6] > 100 µM | [7] > 100 µM | [8] > 100 µM | [9] > 100 µM | [17] > 100 µM | [18] 70 µM | [10] > 100 µM | [19] > 100 µM | [11] > 100 µM | [12] > 100 µM | [13] > 100 µM | [14] > 100 µM | [15] > 100 µM

S=C(S)NCCCn1ccnc1
inactive: [1] > 100 µM | [2] > 100 µM | [3] > 100 µM | [4] > 100 µM | [5] > 100 µM | [6] > 100 µM | [7] > 100 µM | [8] > 100 µM | [9] > 100 µM | [17] > 100 µM | [10] > 100 µM | [19] > 100 µM | [11] > 100 µM | [12] > 100 µM | [16] > 100 µM | [13] > 100 µM | [14] > 100 µM | [15] > 100 µM

C[N+](C)(C)CC1CCCC(C[N+](C)(C)C)C1=NO (stereo not given)
inactive: [2] > 100 µM | [3] > 100 µM | [4] > 100 µM | [5] > 100 µM | [6] > 100 µM | [7] > 100 µM | [8] > 100 µM | [9] > 100 µM | [17] > 100 µM | [10] > 100 µM | [19] > 100 µM | [11] > 100 µM | [12] > 100 µM | [13] > 100 µM | [14] > 100 µM

Cc1ccc(S(=O)(=O)N2CCC(=O)c3cc(Br)ccc32)cc1
inactive: [1] 6.52 µM | [2] 16.9 µM | [3] 3.72 µM | [4] 16.8 µM | [5] 5.21 µM | [6] 10.3 µM | [7] 5 µM | [8] 7.05 µM | [9] 22 µM | [17] 4.57 µM | [10] 13.6 µM | [19] 4.51 µM | [11] 4.72 µM | [12] 3.24 µM | [13] 16.8 µM | [14] 10.1 µM | [15] 7.16 µM

Cn1cnnc1Sc1c([N+](=O)[O-])nc(-c2ccc([N+](=O)[O-])cc2)n1C
inactive: [1] 13.6 µM | [2] 14.9 µM | [3] 16.6 µM | [4] 18.6 µM | [5] 16.5 µM | [6] 15.1 µM | [7] 16.7 µM | [8] 16.9 µM | [9] 14.9 µM | [17] 18 µM | [18] 10.3 µM | [10] > 100 µM | [19] 14.6 µM | [11] 15.1 µM | [12] 20.5 µM | [13] 16.1 µM | [14] > 100 µM | [15] > 100 µM
